Experimental data as given in patent US8628938B2, “Polynucleotide encoding UDP-glucuronyl transferase” (Suntory Holdings Limited, priority 2007, dated 2014).

Key:
PfUGT50 = experiment: UDP-glucuronosyltransferase activity assay (HPLC) with recombinant PfUGT50; format: biochemical, Perilla frutescens; conditions: 100 μM glycosyl acceptor substrate, 2 mM UDP-glucuronic acid, pH 7.5, 30° C., 30 minutes
Protocol: (§1) Escherichia coli BL21 (DE3) was transformed with each plasmid obtained in 4-(1) above. The transformant obtained was shake cultured overnight at 37° C. in 4 ml of LB medium (10 g/l tryptone, 5 g/l yeast extract, 1 g/l NaCl) supplemented with 50 μg/ml of ampicillin. The culture broth, 4 ml, which reached the stationary phase, was inoculated into 80 ml of the medium with the same composition, followed by shake culture at 37° C. When the cell turbidity (OD600) reached approximately 0.5, 0.4 mM IPTG (isopropyl-β-thiogalactopyranoside) in a final concentration was added to the medium, followed by shake culture at 22° C. for 20 hours. All of the subsequent procedures were performed at 4° C. The transformants cultured were centrifuged (7,000×g, 15 mins.) to collect the cells, and 2 ml/g cell of Buffer S (20 mM sodium phosphate buffer (pH 7.4), 20 mM imidazole, 0.5 M NaCl, 14 mM β-mercaptoethanol) was added to the cells for suspension. Subsequently, ultrasonication was performed (15 secs.×8) followed by centrifugation (15,000×g, 10 mins.). To the supernatant obtained, 0.12% (w/v) polyethyleneimine in a final concentration was added to […], which was then allowed to stand for 30 minutes. The mixture was centrifuged (15,000×g, 10 mins.) and the supernatant was recovered as a crude enzyme solution. The crude enzyme solution was applied to His SpinTrap (GE Healthcare), which had been equilibrated with Buffer S, and centrifuged (70×g, 30 secs.). After washing with 600 μl of Buffer S, the protein bound to the column was stepwise eluted with 600 μl each of Buffer S containing 100, 200 and 500 mM imidazole. The buffer in each fraction eluted was replaced by 20 mM potassium phosphate buffer (pH 7.5) containing 14 mM β-mercaptoethanol, using Microcon YM-30 (Amicon). […] These fractions were mixed and used for analysis.
(§2) Standard reaction conditions are as follows. A reaction solution (2 mM UDP-glucuronic acid, 100 μM glycosyl acceptor substrate, 50 mM potassium phosphate buffer (pH 7.5), enzyme solution), 50 μl, was prepared and the enzyme solution was added to initiate the reaction at 30° C. for 30 minutes. The reaction was stopped by adding 50 μl of 0.5% TFA in CH3CN and provided for HPLC analysis. The conditions for HPLC are as follows: column, Develosil C30-UG-5 (4.6×150 mm); eluant A, 0.1% TFA/H2O; eluant B, 0.08% TFA/90% CH3CN; conditions A for elution (except for aurone, catechin, coumarine and phenylpropanoid), 0 min/5% B→18 min/100% eluant B'18.1 min/5% B→25 min/5% B; conditions B for elution (aurone, catechin, coumarine and phenylpropanoid), 0 min/5% B→20 min/50% eluant B→20.5 min/5% B→25 min/5% B; flow rate, 1 ml/min; detection wavelength: 280 and 350 nm.

S1UGT = experiment: UDP-glucuronosyltransferase activity assay (HPLC) with recombinant S1UGT; format: biochemical, Scutellaria laeteviolacea v. yakusimensis; conditions: 100 μM glycosyl acceptor substrate, 2 mM UDP-glucuronic acid, pH 7.5, 30° C., 30 minutes
Protocol: as §1, §2

AmUGTcg10 = experiment: UDP-glucuronosyltransferase activity assay (HPLC) with recombinant AmUGTcg10; format: biochemical, Antirrhinum majus; conditions: 100 μM glycosyl acceptor substrate, 2 mM UDP-glucuronic acid, pH 7.5, 30° C., 30 minutes
Protocol: as §1, §2

SiUGT23 = experiment: UDP-glucuronosyltransferase activity assay (HPLC) with recombinant SiUGT23; format: biochemical, Sesamum indicum; conditions: 100 μM glycosyl acceptor substrate, 2 mM UDP-glucuronic acid, pH 7.5, 30° C., 30 minutes
Protocol: as §2
cDNA containing full-length ORF of SiUGT23 derived from Sesamum indicum was amplified by a gene-specific primer set (SEQ ID NOs: 24 and 25). cDNA synthesized using total RNA extracted from sesame seeds was used as a template. SiUGT23 was incorporated into Escherichia coli expression vector as in UGT of Perilla frutescens, Scutellaria laeteviolacea v. yakusimensis and Antirrhinum majus in EXAMPLE 1 and recombinant SiUGT23 protein was expressed in the same way to assay the enzyme activity.

Sb7GAT = conditions: enzyme purified from Scutellaria baicalensis; Nagashima et al. 2000; cited from earlier work
[1] = Analysis of pH and temperature characteristics of the recombinant enzymes; format: biochemical; conditions: for reaction optimum temperature: activity assay for 30 minutes, reaction temperature 10 to 55° C.; for activity in an acidic region: reaction pH dependency
Protocol: Temperature stability was analyzed as follows. An enzyme solution was treated at 15 to 55° C. for an hour and then cooled to 4° C. Using the sample cooled, the residual activity was determined under standard reaction conditions. After 167 mM final concentration of a buffer solution (pH 4, 4.5, 5, Acetate-NaOH; pH 5.5, 6, 6.5, 7, 7.5, NaH2PO4-NaOH; pH 8, 8.5, 9, Tris-HCl) was added to the enzyme solution, the mixture was treated at 4° C. for an hour and then 500 mM final concentration of potassium phosphate buffer (pH 7.5) was added thereto. Using the sample treated, the residual activity was determined under standard reaction conditions. The reaction was performed under standard reaction conditions where the reaction temperature was set at 10 to 55° C. to analyze the reaction temperature dependency. Reaction pH dependency was analyzed under standard reaction conditions using a buffer solution (pH 4, 4.5, 5, Acetate-NaOH; pH 5.5, 6, 6.5, 7, 7.5, NaH2PO4—NaOH; pH 8, 8.5, 9, Tris-HCl) in place of potassium phosphate buffer (pH 7.5). […] PfUGT50 was stable at 30° C. or lower (an hour, pH 7.5) and the reaction optimum temperature was 30° C. in the activity assay for 30 minutes. […] This enzyme was stable at 40° C. or lower (an hour, pH 7.5) and the reaction optimum temperature was 35° C. in the activity assay for 30 minutes. […] This enzyme was stable at 30° C. or lower (an hour, pH 7.5) and the reaction optimum temperature was 45° C. in the activity assay for 30 minutes. These properties were similar to known GT involved in plant secondary metabolism.

Molecule | relative activity to each substrate, taking the activity to scutellarein as 100% (PfUGT50) [%] | relative activity to each substrate, taking the activity to scutellarein as 100% (S1UGT) [%] | relative activity to each substrate, taking the activity to scutellarein as 100% (AmUGTcg10) [%] | relative activity to each substrate, taking the activity to scutellarein as 100% (SiUGT23) [%] | activity in an acidic region [1] | action of Sb7GAT on the substrate (Sb7GAT) | reaction optimum temperature [1] [°C] | temperature at which the enzyme was stable (residual activity) ([1]; an hour, pH 7.5, treated at 15 to 55° C.) [°C]
O=c1cc(-c2ccc(O)c(O)c2)oc2cc(O)cc(O)c12 [luteolin] | 41 | 0.6 | 34 | 29 | – | does not act | – | –
O=c1cc(-c2ccccc2)oc2cc(O)c(O)c(O)c12 [baicalein] | 73 | 63 | 22 | 24 | – | acts | – | –
AmUGTcg10: UDP-glucuronosyltransferase having the amino acid sequence of SEQ ID NO: 13, derived from Antirrhinum majus (protein, listed as Antirrhinum majus) MEDTIVLYASAEHLNSMLLLGKLINKHHPTISVAIISTAPNAAASSVADVAAISYQQLKPATLPSDLTKNPIELFFEIPRLHNPNLLEALEELSLKSKVRAFVIDFFCNPAFEVSTSLNIPTYFYVSSGAFGLCGFLHFPTIDETVEKDIGELNDILEIPGCPPVLSSDFPKGMFFRKSNTYKHFLDTAKNMRRAKGIVVNAFDAMEFRAKEALVNNLCVPNSPTPPVFLVGPLVGASTTTKTTNEQHECLKWLDVQPDRSVIFLCFGRRGLFSADQLKEIAIGLENSGHRFLWSVRCPPSKPNSYNTDPDLDELLPEGFLSRTETRGFVIKSWAPQKEVLSHGAVGGFVTHCGRSSILEAVSFGVPMIGWPIYAEQRMNRVFMVEEMKVALQLDEVEEGFVAAVELEKRVKELMDSKNGRAVRQRVKEMKVAAEVAVEKGGSSVVALQRFVDMVVS | – | – | – | – | little activity | – | 45 | –
S1UGT: UDP-glucuronosyltransferase having the amino acid sequence of SEQ ID NO: 11, derived from Scutellaria laeteviolacea v. yakusimensis (protein, listed as Scutellaria sp.) MEDTIVIYTTPEHLNTMAVLAKFISKHHPSVPIILISTAAESAAASIAAVPSITYHRLPLPEIPPSLTKDRVELFFELPRLSNPNLRLALQEISQKARIRAFVIDFFCNAAFEVSTSLSIPTFYYFSSGSPTATLVLHFQTLDETIPGDLKDLDDFVEIPGLPPIYSLDIPVALLTRQSLVYQSSVDISKNLRKSAGFLVNGFDALEFRAKEAIVNGLCVPNGPTPPVYFIGPLVGDVDAKAGGEEHECLRWLDTQPSKSVIFLCFGRRGVFSAEQLKETAVALENSGHRFLWSVRNPPEIMKNSDEPDLDELLPEGFLERTKDRGFVIKSWAPQKEVLSHDSVGGFVTHCGRSSISEGVWFGVPMIGWPVDAEQKLNRTVLVEEMQVALPMEEAEGGFVTAAELEKRVRELMESKVGKAVRQRVGELKCSARAAVTGNGSSLSDFKKFLLATRD | – | – | – | – | little activity | – | 35 | ≤ 40

More lines, main results first:

relative activity to each substrate, taking the activity to scutellarein as 100% (PfUGT50) [%] | relative activity to each substrate, taking the activity to scutellarein as 100% (S1UGT) [%] | relative activity to each substrate, taking the activity to scutellarein as 100% (AmUGTcg10) [%] | relative activity to each substrate, taking the activity to scutellarein as 100% (SiUGT23) [%] | activity in an acidic region [1] | Molecule | action of Sb7GAT on the substrate (Sb7GAT) | reaction optimum temperature [1] [°C] | temperature at which the enzyme was stable (residual activity) ([1]; an hour, pH 7.5, treated at 15 to 55° C.) [°C]
26 | 1 | 4 | 4 | – | O=c1c(O)c(-c2ccc(O)c(O)c2)oc2cc(O)cc(O)c12 [quercetin] | not | – | –
44 | 3 | 40 | 7 | – | O=c1cc(-c2ccc(O)cc2)oc2cc(O)cc(O)c12 [apigenin] | does not act | – | –
– | – | – | – | little activity | PfUGT50: UDP-glucuronosyltransferase having the amino acid sequence of SEQ ID NO: 5, derived from Perilla frutescens a red-leaf variety (protein, listed as Perilla frutescens) MEGVILLYSSAEHLNSMLLLATFIAKHHPSIPITILSSADYSAAASVSTLPSITYRRLPPVAIPPDSIKNPVEAFFEIPRLQNPNLRVALEEISQKTRIRAFVIDFFCNSAFEVSTSLSIPTYFYVSTGSAGVCIFLYFPTTDETVATDIGDLRDFLEFPGSPIIHSSDLPQLTFFRRSNVFKHMLDTSKNMQKSSGILTNGFDAMEFRAKEALTNGLCVPNGPTPPVYLVGPLVAGSNAKKDHECLLWLDRQPSKSVVFLCFGRRGLFSGKQLREMAVALERSGYRFLWSVRNPPENRSPAEDPDLDELLPEGFLERTKDIGFVVKSWAPQKEVLSHDAVAGFVTHCGRSSILEALVNGKPMIGWPMYAEQRMNKVFMVDEMKVALPLEEEEDGFVTAVELEKRLRQLMESKTGRDVRHRVAEMKAAATAAMGENGSAVVALRKFIDSVTRD | – | 30 | –
